Our source for the TGI and GI50 values is PubChem BioAssay (NCI).

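These data come from cells grown in 96-well plates and exposed to compound for 48 hours at five concentrations. GI50: concentration for 50% inhibition of growth. TGI denotes the concentration required for complete inhibition of growth.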 Some results are limits rather than exact numbers.

Assay in all cases: NCI tumour cell line growth inhibition, 48 h
For assay [1], the system named is DMS 273 small cell lung.
For assay [2], the system named is DMS 114 small cell lung.
Assay [3] relates to DLD-1 colon.
The test system of assay [4] is KM20L2 colon.
Assay [5] concerns SNB-78 CNS.
The test system of assay [6] is RXF-631 renal.
Assay [7] has as its system LXFL 529 NSCLC.
Assay [8] concerns HOP-18 NSCLC.
For assay [9], the system named is M19-MEL melanoma.
The test system of assay [10] is SN12K1 renal.
The subject of assay [11] is P388 leukemia.

Regarding `COC(=O)C1CCC(=NC2c3ccccc3-c3ccccc32)N1` (stereo unspecified), the TGI in assay [1], in assay [2], in assay [3], in [4], in [5] and in assay [6] was above 100 µM throughout. Further, the TGI in assay [7], in assay [8] and in assay [9] was above 100 µM each time.
As to `COC(=O)C(=O)C(C(=O)C(=O)Nc1ccccc1C(N)=O)c1nc2ccc(C(=O)c3ccccc3)cc2[nH]c1=O` (stereo unspecified), the TGI in assay [1], in [2], in [4], in assay [5], in assay [6] and in assay [7] was above 100 µM throughout. Besides, the TGI in assay [8] and in assay [9] was above 100 µM each time.
As to `C/C(=N\NC(=S)N1CCC(C2CCN(C(=S)N/N=C(\C)c3ccccn3)CC2)CC1)c1ccccn1`, the TGI in assay [1], in assay [3], in [4], in assay [5], in assay [6] and in [7] was above 100 µM each time. The TGI in assay [8] and in assay [9] was above 100 µM throughout.
Regarding `Clc1ccccc1C1=NN(c2ccccc2)C2c3cc(Br)ccc3OCC12` (stereo unspecified), the TGI in assay [1], in [2], in [3], in [4], in assay [5] and in [7] was above 100 µM each time. The TGI in [8] and in assay [9] was above 100 µM throughout.
Consider `Nc1ccc2c(c1)CN1C(=O)c3ccccc3C1=N2`, for which the TGI in assay [10] was above 72.4 µM; in assay [1], above 125 µM; in assay [2], above 125 µM; in [3], above 125 µM; in [11] it was above 125 µM; in [4], above 125 µM. Also, the TGI in assay [5] was above 79.4 µM; in [8], above 125 µM; in assay [9], above 125 µM. In assay [9], the GI50 is 54.8 µM.
`CC[C@@]1(O)C(=O)OCc2c1cc1n(c2=O)Cc2cc3c(NC(C)=O)c(O)ccc3nc2-1`: the GI50 in assay [1] is 0.296 µM; in assay [2], 0.353 µM; in assay [3], 43.3 µM; in assay [4], 16.3 µM; in assay [5], 28.9 µM; in assay [6] it was 4.47 µM. The GI50 in assay [7] was 12.5 µM; in [8], 7.57 µM; in assay [9], 4.93 µM. Also, the TGI was 8.33 µM in assay [1]; 7.58 µM in assay [2]; above 100 µM in [3]; above 100 µM in assay [4]; above 100 µM in [5]; above 100 µM in assay [6]. For the same compound, the TGI in assay [7] was above 100 µM; in [8], above 100 µM; in [9] it was 43.7 µM.
Take `COc1cc(C2c3cc4c(cc3[C@@H](Nc3cccc(O)c3)C3COC(=O)[C@H]23)OCO4)cc(OC)c1O` (stereo partly specified): the TGI was 7.81 µM in [10]; 6 µM in assay [1]; 5.21 µM in [2]; 40.9 µM in [3]; 0.507 µM in [11]; 17.6 µM in assay [4]. For the same compound, the TGI came out at 65.1 µM in assay [5], 24.9 µM in assay [7], 33 µM in assay [8] and 18.9 µM in [9]. Also, the GI50 in assay [1] is 0.404 µM; in assay [2], 0.49 µM; in [5], 0.906 µM; in assay [7], 0.85 µM; in [9], 0.747 µM.
Consider `O=C1c2ccccc2C(=O)c2c1ccc1c3ccccc3n(Cc3ccccc3)c21`, for which the TGI in [2] was above 100 µM; in assay [3], above 100 µM; in [7], above 100 µM; in [8], 0.0908 µM; in assay [9], above 100 µM.
`O=C1/C(=C/c2ccccc2)CN(C(=O)OCC(Cl)(Cl)Cl)C/C1=C\c1ccccc1`: the TGI in [1] stood at 3.27 µM; in assay [2] it was 4.08 µM; in assay [3] it was 3.77 µM; in [4], 7.68 µM; in assay [5] it was 5.92 µM; in [7], 3.94 µM. Further, the results for the TGI in [8] and in assay [9] were 9.82 µM and 2.79 µM, respectively.
In the case of `O=C1c2cccc3cccc(c23)C(=O)N1CCCN1CCN(CCCN2C(=O)c3cccc4cccc(c34)C2=O)CC1`, the TGI in assay [1], in [2], in assay [3], in [4], in assay [5] and in [6] was above 100 µM in each case. In addition, the TGI in assay [7], in [8] and in [9] was above 100 µM throughout.
In the case of `CCOC(=N)CC(=O)NC(C)c1ccccc1` (stereo unspecified), the TGI in assay [1], in assay [3], in assay [4], in assay [5], in assay [6] and in assay [7] was above 100 µM throughout. Also, the TGI in [8] and in [9] was above 100 µM each time.
